Assay [1] concerns the target human CB1 receptor (hCB1) (Homo sapiens, UniProt P21554). Nature of the assay: cAMP assay, agonist/inverse agonist activity at human CB1 receptor. It counts as cell-based. As to conditions: hCB1R, read-out: EC50 at hCB1R (Potency at Human CB1 determined by cAMP Assay). On the procedure:
The ability of each of the compounds to act as agonists or inverse agonists at human CB2 and CB 1 receptors (hCB2, hCB 1, respectively) and at the rat CB2 receptor (rCB2) was determined by measuring changes in intracellular cyclic AMP (cAMP) levels as described in U.S. Pat. No. 7,517,874.
TR-FRET was measured using a 330-380 nm excitation filter, 615 nm and 665 nm emission filters, dichroic mirror 380 nm and Z=10 mm. cAMP concentrations in each well were back-calculated from a cAMP standard curve run concurrently during each assay. Each plate contained 16 wells of forskolin stimulated cells and 16 wells of forskolin plus 1 μM CP55,940-treated cells. Concentrations of cAMP were expressed as a percent of the difference of these two groups of wells. Concentration-response data including EC50 (the concentration of compound producing 50% of the maximal response) and intrinsic activity (the percent maximal activation compared to full activation by CP55,940) were determined using a four-parameter non-linear regression algorithm (CambridgeSoft Bioassay).

The test system of assay [2] is Complete Freund's Adjuvant (CFA) model of inflammatory pain. The experiment in a line: Anti-hyperalgesia in CFA inflammatory pain model (paw withdrawal latency to thermal stimulus). The format is in vivo, male Sprague-Dawley rats. The settings on record: PO dose 3 mg/kg, 1 hr after dosing (24 hr after CFA), rat, read-out: % MPE (1 hr), paw withdrawal latency after CFA injection. On the procedure: The anti-hyperalgesic effects of test compounds in the Complete Freund's Adjuvant (CFA) model of inflammatory pain were determined essentially as described in U.S. Pat. No. 7,517,874 using male Sprague-Dawley rats (Hsd: Sprague-Dawley®SD®, Harlan, Indianapolis, Ind.) weighing 200-300 grams.
Test compounds were prepared in a Cremaphor vehicle mixture of 1:1:18 CremophorEL:ethanol:water. Cremophor was obtained from Sigma Chemical (St. Louis, Mo.). Vehicle mixture or vehicle mixture+test compound were each administered p.o.
Assessment of thermal hyperalgesia: Baseline and post-treatment paw withdrawal latencies to a noxious thermal stimulus were measured using a plantar test apparatus (Ugo Basile; obtained from Stoelting, Wood Dale, Ill.). This apparatus generates an infrared heat source that is linearly increasing in intensity. To avoid tissue damage, the power to the heat source was cut off after 20 seconds.
Paw withdrawal latency is defined as the time required for the rat to flick its paw away from the thermal stimulus. Ibuprofen (100 mg/kg, p.o.) was used as the positive control. Paw withdrawal latencies (in seconds) were measured before (naïve paw latency, L1) and 24 hr following (CFA-inflamed paw latency, L2) a single intraplantar injection of 0.1 mL CFA (Sigma-Aldrich, cat F5881, Mycobacterium tuberculosis 1 mg/ml).
Test compounds were administered orally 23 hours following CFA injection; i.e., 1 hour prior to thermal assessment (compound treated CFA-inflamed paw latency, L3). The mean paw withdrawal latency and standard error of the mean (SEM) was determined for the injured paws for each treatment group.
Data were expressed as percent maximum percent effect (% MPE) defined as the percentage of restoration of latency of test compound-treated CFA inflamed paw as compared to the naïve paw latency.

Assay [3] deals with human CB2 receptor (hCB2) (Homo sapiens, UniProt P34972). The experiment in a line: cAMP assay, agonist/inverse agonist activity at human CB2 receptor. It counts as cell-based. On the procedure:
TR-FRET was measured using a 330-380 nm excitation filter, 615 nm and 665 nm emission filters, dichroic mirror 380 nm and Z=10 mm. cAMP concentrations in each well were back-calculated from a cAMP standard curve run concurrently during each assay. Each plate contained 16 wells of forskolin stimulated cells and 16 wells of forskolin plus 1 μM CP55,940-treated cells. Concentrations of cAMP were expressed as a percent of the difference of these two groups of wells.

SMILES strings stand for the structures. Read-outs that look alike come from different tables or passages of the source.

Sequence of human CB1 receptor (hCB1) (P21554 whole entry): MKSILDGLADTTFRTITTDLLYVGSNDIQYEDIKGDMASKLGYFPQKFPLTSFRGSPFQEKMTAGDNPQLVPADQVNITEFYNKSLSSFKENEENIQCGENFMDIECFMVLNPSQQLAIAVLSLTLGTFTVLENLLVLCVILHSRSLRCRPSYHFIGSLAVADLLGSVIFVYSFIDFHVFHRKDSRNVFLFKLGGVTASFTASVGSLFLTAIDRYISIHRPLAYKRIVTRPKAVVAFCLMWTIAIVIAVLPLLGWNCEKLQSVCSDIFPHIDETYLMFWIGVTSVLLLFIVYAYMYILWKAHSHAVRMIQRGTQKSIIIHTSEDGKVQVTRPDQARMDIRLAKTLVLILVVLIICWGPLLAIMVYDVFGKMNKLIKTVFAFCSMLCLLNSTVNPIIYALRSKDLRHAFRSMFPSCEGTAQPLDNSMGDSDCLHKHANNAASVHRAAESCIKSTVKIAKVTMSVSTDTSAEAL
Sequence of human CB2 receptor (hCB2) (P34972 whole entry): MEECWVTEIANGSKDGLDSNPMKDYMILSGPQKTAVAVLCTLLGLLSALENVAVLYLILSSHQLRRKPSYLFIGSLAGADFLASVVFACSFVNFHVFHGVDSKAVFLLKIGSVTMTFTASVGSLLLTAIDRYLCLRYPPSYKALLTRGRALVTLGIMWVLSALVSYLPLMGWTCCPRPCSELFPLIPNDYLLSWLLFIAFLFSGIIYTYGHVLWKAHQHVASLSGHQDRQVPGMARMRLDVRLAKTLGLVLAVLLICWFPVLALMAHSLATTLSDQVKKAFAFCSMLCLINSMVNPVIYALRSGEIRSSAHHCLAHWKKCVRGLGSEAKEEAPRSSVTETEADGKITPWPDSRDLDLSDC

On to `CNC(=O)[C@@H](NC(=O)c1nn(-c2ccc(F)c(F)c2)c2c1COCC2)C(C)(C)C` [Compound 114, (S)-1-(3,4-difluorophenyl)-N-(3,3-dimethyl-1-(methylamino)-1-oxobutan-2-yl)-1,4,6,7-tetrahydropyrano[4,3-c]pyrazole-3-carboxamide], for which the concentration for a half-maximal effect (EC50) in assay [1] is < 1000 nM; in assay [3] (hCB2R, cAMP assay, read-out: EC50 at hCB2R (Potency at Human CB2 determined by cAMP Assay)), < 1000 nM. Also, the inhibition in vivo at 3 mg/kg in assay [2] was determined as 41%.
On to `CC(C)(C)[C@H](NC(=O)c1nn(-c2ccc(F)c(F)c2)c2c1COCC2)C(=O)NCCO` [Compound 115, (S)-1-(3,4-difluorophenyl)-N-(1-(2-hydroxyethylamino)-3,3-dimethyl-1-oxobutan-2-yl)-1,4,6,7-tetrahydropyrano[4,3-c]pyrazole-3-carboxamide], for which the concentration giving a half-maximal response (EC50) in assay [1] and in assay [3] was < 1000 nM in each case. Besides, the inhibition in vivo at 3 mg/kg in assay [2] came to 35%.
In the case of `CC(C)(C)[C@H](NC(=O)c1nn(-c2ccc(F)c(F)c2)c2c1CCOC2)C(=O)NCCO` [Compound 116, (S)-1-(3,4-difluorophenyl)-N-(1-(2-hydroxyethylamino)-3,3-dimethyl-1-oxobutan-2-yl)-1,4,5,7-tetrahydropyrano[3,4-c]pyrazole-3-carboxamide], the EC50 in assay [1] and in assay [3] was < 1000 nM in each case. In assay [2], the inhibition in vivo at 3 mg/kg turned out to be 60%.

The values above are taken from patent publication US8653127B2, “Bicyclic pyrazolo-heterocycles” (Cara Therapeutics, Inc., priority 2009, dated 2014).
